{"source": "patent US9527827B2", "about": "“C-9 oxygen functionalized labdane derivates” (COUNCIL OF SCIENTIFIC & INDUSTRIAL RESEARCH, priority 2011, dated 2016)", "key": {"[1]": {"system": "prostaglandin-induced contractions", "conditions": "cited from earlier work"}, "[2]": {"system": "Mycobacterium tuberculosis H37Ra", "assay": "In vitro anti-mycobacterial activity against M. tuberculosis", "type": "cell-based", "conditions": "for IC50 / IC90: Mycobacterium tuberculosis, M. tuberculosis H37Ra; for IC50 / IC90 / Inhibition of / anti-tubercular activity against Mycobacterium tuberculosis (in words): in vitro", "experimental": "All the isolated compounds and whole acetone extract were tested for their in vitro effect against Mycobacterium tuberculosis H37Ra."}, "[3]": {"system": "Escherichia coli", "assay": "Specificity test against E. coli (growth, absorbance at 620 nm)", "type": "cell-based"}, "[4]": {"system": "Mycobacterium smegmatis", "assay": "Specificity test against M. smegmatis (XTT reduction microplate assay)", "type": "cell-based"}, "[5]": {"system": "M. tuberculosis H37Rv", "conditions": "cited from earlier work"}}, "note": "Entries after “also recorded” stand apart in the source; their conditions may differ.", "data": [{"compound": "leucasperone A", "values": [{"measurement": "Inhibition of prostaglandin-induced contractions (in words)", "setting": "[1]", "value": "showed inhibition"}]}, {"compound": "C=C[C@](C)(O)CC[C@@H]1[C@@]2(C)CCCC(C)(C)[C@H]2CC[C@@]1(C)O", "note": "[Compound 4]", "values": [{"measurement": "IC50", "setting": "[2]", "value": 5.95, "unit": "µg/mL"}, {"measurement": "IC90", "setting": "[2]", "value": 10.8, "unit": "µg/mL"}, {"measurement": "Inhibition of / anti-tubercular activity against Mycobacterium tuberculosis (in words)", "setting": "[2]", "value": "potent anti-tubercular activity; also recorded: significant inhibition; also recorded: effective"}]}, {"compound": "C=C[C@]1(C)C=C2C(=O)C[C@H]3C(C)(C)[C@@H](O[C@@H]4O[C@H](CO)[C@@H](O)[C@H](O)[C@H]4O[C@@H]4O[C@H](CO)[C@@H](O)[C@H](O)[C@H]4O)CC[C@]3(C)[C@H]2CC1", "note": "[leucasperosides B, leucasperoside B]", "values": [{"measurement": "Inhibition of prostaglandin-induced contractions (in words)", "setting": "[1]", "value": "showed inhibition"}]}, {"compound": "C[C@@H]1CC[C@H]2C(C)(C)CCC[C@]2(C)[C@@]1(O)CC/C(=C/CO)CO", "note": "[Compound 3]", "values": [{"measurement": "Percent inhibition, E. coli", "setting": "[3]; tested at IC90 found against M. tuberculosis, 6 h incubation, mean ± S.D. of three experiments", "value": "11.47 ± 1.65", "unit": "%"}, {"measurement": "Percent inhibition, M. smegmatis", "setting": "[4]; tested at IC90 found against M. tuberculosis, mean ± S.D. of three experiments", "value": "30.57 ± 3.58", "unit": "%"}, {"measurement": "IC50", "setting": "[2]", "value": 9.8, "unit": "µg/mL"}, {"measurement": "IC90", "setting": "[2]", "value": 46.5, "unit": "µg/mL"}, {"measurement": "Inhibition of / anti-tubercular activity against Mycobacterium tuberculosis (in words)", "setting": "[2]", "value": "significant inhibition; also recorded: effective"}, {"measurement": "Specificity / selectivity for M. tuberculosis (in words)", "setting": "[2]; versus E. coli and M. smegmatis", "value": "specifically active; also recorded: selective inhibitors"}]}, {"compound": "NNC(=O)c1ccncc1", "note": "[Isoniazid, reference compound]", "values": [{"measurement": "IC90", "setting": "[2]", "value": "0.05 ± 0.003", "unit": "µg/mL"}]}, {"compound": "linifolioside", "values": [{"measurement": "Inhibition of prostaglandin-induced contractions (in words)", "setting": "[1]", "value": "showed inhibition"}]}, {"compound": "C=C[C@]1(C)C=C2C(=O)C[C@H]3C(C)(C)[C@@H](O[C@@H]4O[C@H](CO)[C@@H](O)[C@H](O)[C@H]4O[C@@H]4O[C@H](CO[C@@H]5O[C@H](CO)[C@@H](O)[C@H](O)[C@H]5O)[C@@H](O)[C@H](O)[C@H]4O)CC[C@]3(C)[C@H]2CC1", "note": "[leucasperosides A, leucasperoside A]", "values": [{"measurement": "Inhibition of prostaglandin-induced contractions (in words)", "setting": "[1]", "value": "showed inhibition"}]}, {"compound": "C=CC(=C)CCC1C(=C)CC[C@H]2[C@@](C)(C(=O)O)[C@H](OC(C)=O)CC[C@]12C", "note": "(some centres unmarked) [juniperexcelsic acid]", "values": [{"measurement": "MIC", "setting": "[5]", "value": 14.4, "unit": "µg/mL"}]}, {"compound": "CO[C@H]1/C=C/O[C@@]2(C)Oc3c(C)c(O)c4c(O)c(c(/C=N/N5CCN(C)CC5)c(O)c4c3C2=O)NC(=O)/C(C)=C\\C=C\\[C@H](C)[C@H](O)[C@@H](C)[C@@H](O)[C@@H](C)[C@H](OC(C)=O)[C@@H]1C", "note": "[Rifampicin, reference compound]", "values": [{"measurement": "IC90", "setting": "[3]; Escherichia coli, reference drug, value is IC90, not percent inhibition", "value": "0.5 ± 0.04", "unit": "µg/mL"}, {"measurement": "IC90", "setting": "[4]; Mycolicibacterium smegmatis, reference drug, value is IC90, not percent inhibition", "value": "0.2 ± 0.03", "unit": "µg/mL"}]}]}
